Measurements: paper PMC6620467, “Gram-scale synthesis of FICZ, a photoreactive endogenous ligand of the aryl hydrocarbon receptor” (Scientific Reports, 2019)
Where two headings read alike, the source gives them in different places.

Assays:
human AhR = biological target: T1, human AhR (Homo sapiens, UniProt P35869); assay: cyp1a1 promoter β-lactamase reporter gene assay for AhR activation (CYP1A1-bla-LS180 cells)
T1 sequence (P35869 11-848): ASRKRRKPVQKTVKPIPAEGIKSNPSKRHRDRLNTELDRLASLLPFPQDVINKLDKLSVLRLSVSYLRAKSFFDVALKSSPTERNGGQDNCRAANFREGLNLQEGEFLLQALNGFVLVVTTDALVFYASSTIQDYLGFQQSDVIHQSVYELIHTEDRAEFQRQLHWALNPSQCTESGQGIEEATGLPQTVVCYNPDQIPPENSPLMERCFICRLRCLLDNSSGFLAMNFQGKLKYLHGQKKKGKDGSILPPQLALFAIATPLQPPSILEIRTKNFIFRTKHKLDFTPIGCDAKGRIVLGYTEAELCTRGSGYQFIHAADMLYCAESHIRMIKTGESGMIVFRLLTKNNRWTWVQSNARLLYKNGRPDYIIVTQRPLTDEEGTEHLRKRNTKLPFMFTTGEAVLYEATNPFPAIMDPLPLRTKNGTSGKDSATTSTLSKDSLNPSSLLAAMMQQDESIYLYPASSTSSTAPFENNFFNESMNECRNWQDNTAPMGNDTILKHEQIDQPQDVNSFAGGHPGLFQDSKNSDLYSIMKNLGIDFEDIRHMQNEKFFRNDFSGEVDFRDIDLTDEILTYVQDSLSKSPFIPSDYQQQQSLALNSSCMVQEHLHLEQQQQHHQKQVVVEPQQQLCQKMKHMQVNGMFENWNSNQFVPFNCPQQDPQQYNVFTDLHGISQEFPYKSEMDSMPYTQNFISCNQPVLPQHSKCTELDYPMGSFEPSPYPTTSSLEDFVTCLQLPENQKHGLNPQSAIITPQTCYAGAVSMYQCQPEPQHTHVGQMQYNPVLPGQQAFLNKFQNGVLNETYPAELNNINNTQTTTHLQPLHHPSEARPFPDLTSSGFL
Source text: We employed a commercially available assay for AhR ligands in which a cell line had been engineered to express a reporter gene composed of the cyp1a1 promoter driving expression of a β-lactamase reporter. AhR ligands were detected by the increased expression of β-lactamase, which was quantified using a fluorescent substrate (see Materials and methods).
Intestinal human colon adenocarcinoma LS180 cells stably transfected with a β-lactamase reporter gene downstream of the cyp1a1 promoter were obtained from Invitrogen (catalog number K1678) and were used in accordance with the protocol described at https://www.thermofisher.com/document-connect/document-connect.html?url=https%3A%2F%2Fassets.thermofisher.com%2FTFS-Assets%2FLSG%2Fmanuals%2Fgeneblazer_cyp1a1blals0180_man.pdf, but adapted to run in 384-well plates.
CYP1A1-bla-LS180 cells (Invitrogen, catalog number K1678) were suspended in assay media (OptiMEM, 1% charcoal stripped serum, 1 mM sodium pyruvate, 0.1 mM NEAA) at a density of 20000 cells/mL. The compounds were dissolved in DMSO at a concentration of 10 mM. 0.5 mL of the compound solutions were added to a 384-well black, clear bottom, cell-coat assay plate (Griener Bio-one). […] A 50 μL aliquot of cell suspension was added to each well, and the compound plate was incubated overnight at 37 °C in 5% CO2. The plate was equilibrated at room temperature for 30 min before adding 10 μL of the LiveBLAzer™ FRET B/G substrate solution (Life Technologies) to each well. The plate was incubated for 90 min at room temperature in the dark before being read on a Perkin Elmer Envision using the bottom read fluorescence program with excitation at 400 nm and detection at 460/535 nm.

[1] = Photostability test of DMSO-d6 solutions by 1H NMR (maleic acid internal reference); format: physicochemical
Procedure: Maleic acid was employed as an internal NMR reference.
The solution was analyzed by ^1H NMR as time point zero. 0.5 mL of the solution was placed into separate ICH 20 mL Flint clear glass bottles that were irradiated in a photostability chamber with illuminance set to 11000 lux as measured by a digital light meter. The contents of separate bottles were checked by ^1H NMR at 1 h, 2 h, 3 h, 4 h, 5 h, 7 h, 10 h, 16 h, and 24 h. […] A parallel experiment was run under the same conditions with ICZ (12.4 mg) and maleic acid (6.4 mg) in 5.1 mL of DMSO-d6 and stability data collected at 1 h, 2 h, 4 h, 6 h, 12 h, 18 h, and 24 h.
The solution was analyzed by ^1H NMR as time point zero. 0.5 mL of the solution was placed into separate ICH 20 mL Flint clear glass bottles that were placed in direct sunlight with illuminance of 63000 lux as measured by a digital light meter (from 1:00 PM to 3:40 PM on March 17, 2015, a sunny day with minimal clouds in Durham, NC, USA). The contents of separate bottles were checked by ^1H NMR at 1.5 min, 3 min, 10 min, 30 min, and 93 min.
The solution was analyzed by NMR as time point zero. The solution was then divided into four ICH 20 ml Flint clear glass bottles: Bottle A was exposed to air and was unprotected from the bright light; Bottle B: was flushed with nitrogen and left unprotected from the bright light; Bottle C was exposed to air but covered by aluminum-foil; and Bottle D was flushed with nitrogen and covered by aluminum foil. All bottles were placed in a photostability chamber with illuminance set to 11100 lux. The contents of each bottle were checked by ^1H NMR at 1 d, 4 d, 8 d, 14 d and 21 d using the quantification procedure described in Method 1.

Which EC50 (human AhR; read-out: EC50 of standard AhR ligand in cyp1a1 reporter assay, control experiments, data not shown) does the source give for `Clc1cc2c(cc1Cl)Oc1cc(Cl)c(Cl)cc1O2` [TCDD, reference compound] here?
The EC50 was 0.31 nM.

With `O=C(O)c1c2[nH]c3ccccc3c2cc2[nH]c3ccccc3c12` [CICZ (9), 5,11-Dihydroindolo[3,2-b]carbazole-6-carboxylic acid] as the molecule, how does the EC50 (human AhR) read?
The EC50 was 400 ± 100 nM.

What about the “potency as AhR agonist relative to FICZ (1), times less potent” value (human AhR; cyp1a1 reporter gene assay) of the same molecule?
Its value is 40 times.

With `O=Cc1c2[nH]c3ccccc3c2cc2[nH]c3ccccc3c12` [FICZ (1), 6-Formylindolo[3,2-b]carbazole] as the molecule, how does the “time to complete decomposition” value ([1]; Condition A: DMSO solution, bright light (11000 lux) and air) read?
The value was no more than 1 days.

What about the “decomposition, Condition C” value ([1]; DMSO solution, air, protected from light with aluminum foil, over 28 d) of the same molecule?
Its value is “further slowed, but did not prevent the decomposition”.

What about the “decomposition, Condition B” value ([1]; DMSO solution, bottle flushed with nitrogen, 11000 lux light, over 28 d) of the same molecule?
Its value is “much slower”.

And the “decomposition, Condition D” value ([1]; DMSO solution, removal of air and protection from light, over 28 d)?
The value was “slowest rate of decomposition”.

What about the half-life at 3 mg/mL ([1]; DMSO-d6 solution in clear Flint glass bottle, DMSO-d6 solution, air and light, 11000 lux, clear Flint bottle, read-out: half-life of decomposition (converted)) of the same molecule?
The half-life at 3 mg/mL was roughly 3 h.

What about the half-life at 2.125 mg/mL ([1]; DMSO-d6 solution in clear Flint glass bottle, DMSO-d6 solution, air, direct sunlight 63000 lux, read-out: half-life of decomposition) of the same molecule?
The half-life at 2.125 mg/mL was roughly 0.5 h.

And the “stability as pure solid” value ([1]; pure solid)?
Its value is “stable”.

Which EC50 (human AhR) does the source give for `c1ccc2c(c1)[nH]c1cc3c(cc12)[nH]c1ccccc13` [ICZ (12), reference compound] here?
The EC50 was 30 ± 10 nM.

And the “decomposition rate relative to FICZ (1), times slower” value ([1]; DMSO-d6 solution, air and light, 11000 lux, identical conditions)?
Its value is “at least 10 times”.

With `CCOC(=O)c1c2[nH]c3ccccc3c2cc2[nH]c3ccccc3c12` [Compound 10, Ethyl 5,11-dihydroindolo[3,2-b]carbazole-6-carboxylate] as the molecule, how does the EC50 (human AhR) read?
The EC50 was 160 ± 40 nM.

Which results are given for `O=C1c2[nH]c3ccccc3c2C(=O)c2[nH]c3ccccc3c21` [Compound 13, Indolo[3,2-b]carbazole-6,12-dione]?
EC50 (human AhR): 70 ± 15 nM; decrease in potency for activation of AhR versus FICZ (1) (human AhR; cyp1a1 reporter gene assay): at least 7 fold

Which EC50 (human AhR) does the source give for `OCc1c2[nH]c3ccccc3c2cc2[nH]c3ccccc3c12` [Compound 11, (5,11-Dihydroindolo[3,2-b]carbazol-6-yl)methanol] here?
Its EC50 is 160 ± 90 nM.
